The values that follow come from ChEMBL document CHEMBL4354862, “Peptidomimetic Vinyl Heterocyclic Inhibitors of Cruzain Effect Antitrypanosomal Activity” (J Med Chem, 2020).

Bounds are passed on as bounds.

The target in series [1] is T1, Cruzipain (Trypanosoma cruzi, UniProt P25779). The experiment in a line: Inhibition of Trypanosoma cruzi cruzain assessed as rate constant for enzyme-inhibitor complex using Cbz-Phe-Arg-AMC as substrate and measured up to 40 mins by fluorescence assay. To be noted: read-out: Ki(app).
Series [2] in a line: Solubility of the compound in 10% DMSO v/v at 1 to 200 uM measured up to 120 mins. To be noted: 2 h. The class given is physicochemical.
Series [3] concerns the target Cruzipain (Trypanosoma cruzi) (UniProt P25779). The experiment in a line: Irreversible inhibition of Trypanosoma cruzi cruzain assessed as ratio of Kinact to Ki using Cbz-Phe-Arg-AMC as substrate by fluorescence assay.
A short description of series [4]: Glutathione reactivity of the compound in 10% DMSO (v/v)/pH 8 Tris buffer assessed as GSH adduct formation by measuring rate of-thiolation at 2:1 molar ratio of GSH/inhibitor by HPLC-MS analysis. It counts as ADME.
Series [5] in a line: Glutathione reactivity of the compound in 10% DMSO (v/v)/pH 8 Tris buffer assessed as GSH adduct formation by measuring equilibrium constant measured after 90 mins by HPLC-MS analysis. It counts as ADME.
Series [6] can be described thus: Glutathione reactivity of the compound in 10% DMSO (v/v)/pH 8 Tris buffer assessed as GSH adduct formation by measuring retention time at 0.5 mM by HPLC-MS analysis. It counts as ADME. To be noted: pH 8, 500 µM.
In series [7] the target is Cruzipain (Trypanosoma cruzi) (UniProt P25779). Nature of the series: Reversible inhibition of Trypanosoma cruzi cruzain assessed as rate constant K4 using Cbz-Phe-Arg-AMC as substrate preincubated for 1 hr followed by enzyme-compound mixture dilution in presence of substrate by fluorescence assay.
Series [8] concerns the target T1, Cruzipain. The experiment in a line: Inhibition of Trypanosoma cruzi cruzain using Cbz-Phe-Arg-AMC as substrate and measured up to 40 mins by fluorescence assay.
In series [9] the target is Cruzipain (Trypanosoma cruzi) (UniProt P25779). Nature of the series: Reversible inhibition of Trypanosoma cruzi cruzain assessed as rate constant K3 using Cbz-Phe-Arg-AMC as substrate preincubated for 1 hr followed by enzyme-compound mixture dilution in presence of substrate by fluorescence assay.
Series [10] concerns the target Procathepsin L (Homo sapiens, UniProt P07711). The experiment in a line: Inhibition of human Cathepsin L assessed as rate constant for enzyme-inhibitor-substrate complex using Cbz-Phe-Arg-AMC as substrate measured up to 40 mins by fluorescence assay.
Series [11] addresses Cathepsin B (Homo sapiens, UniProt P07858). The experiment in a line: Inhibition of human Cathepsin B assessed as rate constant for enzyme-inhibitor-substrate complex using Cbz-Phe-Arg-AMC as substrate measured up to 40 mins by fluorescence assay.
Series [12] deals with Cathepsin S (Homo sapiens, UniProt P25774). The experiment in a line: Inhibition of recombinant human Cathepsin S expressed in Escherichia coli assessed as rate constant for enzyme-inhibitor-substrate complex using Cbz-Phe-Arg-AMC as substrate measured up to 40 mins by fluorescence assay.
Series [13] is described as follows: Selectivity ratio of Ki for human Cathepsin L to Ki for Trypanosoma cruzi cruzain. It counts as toxicity.
Series [14] in a line: Selectivity ratio of Ki for human Cathepsin B to Ki for Trypanosoma cruzi cruzain. It counts as toxicity.
Series [15] is described as follows: Selectivity ratio of Ki for human Cathepsin S to Ki for Trypanosoma cruzi cruzain. The class given is toxicity.
Series [16] has as its system Trypanosoma cruzi. The experiment in a line: Antitrypanosomal activity against axenic cultures of Trypanosoma cruzi Y ATCC 50832GFP epimastigotes supplemented with fresh medium containing compound daily for 5 days by coulter counting method. The class given is functional, organism-based. To be noted: 120 h.
Series [17] deals with Trypanosoma cruzi. The experiment in a line: Potency index, ratio of K11777 IC50 to test compound IC50 for axenic cultures of Trypanosoma cruzi Y ATCC 50832GFP epimastigotes. It counts as functional.
Series [18] concerns Trypanosoma cruzi. The experiment in a line: Antitrypanosomal activity against Trypanosoma cruzi Ca-I/72 infected in mouse C2C12 cells measured after 48 hrs by 4',6-diamidino-2-phenylindole staining based microscopic analysis. It counts as functional, organism-based. To be noted: Ca-I/72, C2C12, 48 h.
The subject of series [19] is C2C12. Nature of the series: Cytotoxicity against mouse C2C12 cells assessed as reduction in cell viability measured after 48 hrs by 4',6-diamidino-2-phenylindole staining based microscopic analysis. The note with it: c2c12, 48 h.
For series [20], the system named is Trypanosoma brucei brucei. Nature of the series: Antitrypanosomal activity against Trypanosoma brucei brucei ATCC PRA-381 procyclic trypomastigotes supplemented with fresh medium containing compound daily for 4 days by coulter counting method. It counts as functional, organism-based. The note with it: ATCC PRA-381, 96 h.
In series [21] the test system is NHDF. Nature of the series: Cytotoxicity against HDF cells assessed as reduction in cell viability measured after 48 hrs by resazurin dye based fluorescence assay. The note with it: human. On the technique in general: Alamar Blue is a resazurin reagent that responds to reducing activity.
Series [22] in a line: Selectivity index, ratio of CC50 for HDF cells to EC50 for Trypanosoma cruzi Ca-I/72 infected in mouse C2C12 cells. It counts as toxicity, cell-based. The note with it: read-out: Ratio CC50/EC50.
Series [23] concerns Trypanosoma brucei brucei. Nature of the series: Antitrypanosomal activity against Trypanosoma brucei brucei ATCC PRA-383 bloodstream forms supplemented with fresh medium containing compound daily for 4 days by coulter counting method. To be noted: ATCC PRA-383, 96 h.
The nature of series [24]: Glutathione reactivity of the compound in 10% DMSO (v/v)/pH 8 Tris buffer assessed as GSH adduct formation by measuring rate of-thiolation at 0.5 mM by HPLC-MS analysis. It counts as ADME. The note with it: pH 8, 500 µM.
For series [25], the system named is Trypanosoma cruzi. Nature of the series: Antitrypanosomal activity against Trypanosoma cruzi Brazil epimastigotes measured after 48 hrs by [3H]thymidine incorporation based beta-counting method. It counts as functional, organism-based. (Incorporation of labelled thymidine or its analogues reports DNA synthesis.)

Chain of Cruzipain (Trypanosoma cruzi) (P25779 123-467 limits assumed): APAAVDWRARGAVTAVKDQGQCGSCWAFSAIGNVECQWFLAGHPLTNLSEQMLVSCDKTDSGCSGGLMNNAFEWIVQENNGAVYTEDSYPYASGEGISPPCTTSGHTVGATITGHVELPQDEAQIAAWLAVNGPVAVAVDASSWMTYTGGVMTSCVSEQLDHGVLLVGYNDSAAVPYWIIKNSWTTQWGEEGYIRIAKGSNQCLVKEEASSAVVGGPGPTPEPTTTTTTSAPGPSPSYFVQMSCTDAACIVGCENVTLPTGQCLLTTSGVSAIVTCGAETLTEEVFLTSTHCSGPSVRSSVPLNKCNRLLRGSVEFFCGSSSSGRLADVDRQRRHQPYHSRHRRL
T1 sequence (P25779 whole entry): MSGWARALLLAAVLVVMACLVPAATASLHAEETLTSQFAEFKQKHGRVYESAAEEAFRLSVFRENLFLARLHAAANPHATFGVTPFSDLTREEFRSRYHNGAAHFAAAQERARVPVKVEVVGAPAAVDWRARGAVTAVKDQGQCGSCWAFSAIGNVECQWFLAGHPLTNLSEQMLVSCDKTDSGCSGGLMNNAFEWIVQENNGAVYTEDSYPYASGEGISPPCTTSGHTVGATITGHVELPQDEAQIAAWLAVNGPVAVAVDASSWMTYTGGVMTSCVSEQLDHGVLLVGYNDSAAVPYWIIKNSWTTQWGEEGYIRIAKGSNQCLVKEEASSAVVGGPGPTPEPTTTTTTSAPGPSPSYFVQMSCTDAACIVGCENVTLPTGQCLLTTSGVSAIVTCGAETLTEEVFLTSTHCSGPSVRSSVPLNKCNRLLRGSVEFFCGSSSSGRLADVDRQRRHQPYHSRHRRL
Chain of Procathepsin L (P07711 whole entry): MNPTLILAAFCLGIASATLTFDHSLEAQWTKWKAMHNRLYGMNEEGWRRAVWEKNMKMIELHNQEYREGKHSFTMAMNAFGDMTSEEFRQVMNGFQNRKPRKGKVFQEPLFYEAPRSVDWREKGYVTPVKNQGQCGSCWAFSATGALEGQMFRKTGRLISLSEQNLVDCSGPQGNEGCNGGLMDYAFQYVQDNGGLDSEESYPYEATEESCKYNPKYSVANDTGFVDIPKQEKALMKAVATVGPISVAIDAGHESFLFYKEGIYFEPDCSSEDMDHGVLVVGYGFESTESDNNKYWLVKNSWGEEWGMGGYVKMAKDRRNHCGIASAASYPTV
Chain of Cathepsin S (P25774 whole entry): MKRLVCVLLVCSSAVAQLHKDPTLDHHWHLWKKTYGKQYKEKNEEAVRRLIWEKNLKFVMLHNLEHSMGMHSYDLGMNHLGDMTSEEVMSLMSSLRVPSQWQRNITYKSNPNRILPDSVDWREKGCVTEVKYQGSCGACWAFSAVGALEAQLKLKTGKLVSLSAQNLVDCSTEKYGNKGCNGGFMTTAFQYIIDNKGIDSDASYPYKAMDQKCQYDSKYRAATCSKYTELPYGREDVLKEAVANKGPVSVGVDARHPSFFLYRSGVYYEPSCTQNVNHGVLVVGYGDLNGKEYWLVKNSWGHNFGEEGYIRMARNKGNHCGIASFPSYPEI

As to `O=C(N[C@@H](Cc1ccccc1)C(=O)N[C@H](/C=C/c1ncccn1)CCc1ccccc1)OCc1ccccc1`, in [1], the Ki is greater than 35 µM.
As for `O=C(N[C@@H](Cc1ccccc1)C(=O)N[C@H](/C=C/c1ccc([N+](=O)[O-])cc1)Cc1ccccc1)OCc1ccccc1`, the solubility result in series [2] was “<= 2 uM”.
With `NC(=O)/C=C/[C@H](Cc1ccccc1)NC(=O)[C@H](Cc1ccccc1)NC(=O)OCc1ccccc1`, the kinact/Ki in [3] was 21.7 M⁻¹ s⁻¹.
The same measure, in the same setting: for `CN1CCN(C(=O)N[C@@H](Cc2ccccc2)C(=O)N[C@H](/C=C/C(N)=O)CCc2ccccc2)CC1` the value was 1900 M⁻¹ s⁻¹.
The term EC50 denotes the concentration at which the effect is half-maximal. The term CC50 denotes the concentration giving 50% cytotoxicity. As to `C[n+]1ccccc1/C=C/[C@H](CCc1ccccc1)NC(=O)[C@H](Cc1ccccc1)NC(=O)OCc1ccccc1`, the Ki is 0.76 µM in series [1]; 2 to 4.3 µM in series [8]; 0.88 µM in series [10]; 37 µM in series [11]; 0.32 µM in series [12]. The K in [4] was 54 M⁻¹ s⁻¹; in series [7] it was 0.00019 s⁻¹; in series [9] it was 0.0012 to 0.004 s⁻¹. Further, in [5], the Ke is 2400 M⁻¹. The Retention_time in [6] is reported as 4.72 min. In series [2], the solubility result is “>= 50 uM”. Moreover, the “Ratio Ki” value in series [13], in [14] and in [15] was greater than 10 each time. Further, the EC50 in [16] worked out at 2.1 µM; in [18] it was 5.4 µM; in series [20], 5.9 µM; in series [23], 2.8 µM. The “Ratio IC50” value in [17] stood at 10. Besides, the values for the CC50 in series [19] and in series [21] were greater than 10 µM and greater than 100 µM, respectively. In addition, the selectivity ratio in series [22] was greater than 20.
With `O=C(N[C@@H](Cc1ccccc1)C(=O)N[C@H](/C=C/c1ccccn1)Cc1ccccc1)OCc1ccccc1`, the K in series [7] was 0.0012 s⁻¹. Further, the solubility entry in series [2] is listed as “<= 30 uM”. Further, in series [16], the EC50 is greater than 20 µM. Besides, the CC50 in series [19] was greater than 10 µM; in series [21] it was greater than 100 µM.
For `NC(=O)/C=C/[C@H](CCc1ccccc1)NC(=O)[C@H](Cc1ccccc1)NC(=O)OCc1ccccc1`, in series [3], the kinact/Ki amounted to 1700 M⁻¹ s⁻¹.
Turning to `O=C(N[C@@H](Cc1ccccc1)C(=O)N[C@H](/C=C/c1ncccn1)Cc1ccccc1)OCc1ccccc1`, the K in [7] is 0.0018 s⁻¹. Moreover, in [2], the solubility result was “>= 100 uM”. Also, the cytotoxic concentration (CC50) in [19] was greater than 10 µM; in series [21] it was greater than 100 µM.
Turning to `COc1ccnc(/C=C/[C@H](CCc2ccccc2)NC(=O)[C@H](Cc2ccccc2)NC(=O)OCc2ccccc2)c1`, the Ki in series [1] was greater than 5 µM.
Consider `C[n+]1ccsc1/C=C/[C@H](Cc1ccccc1)NC(=O)[C@H](Cc1ccccc1)NC(=O)OCc1ccccc1.[I-]`, for which the K in [4] came out at 15 M⁻¹ s⁻¹. Besides, the Ke in series [5] came to 930 M⁻¹. In addition, in [6], the Retention_time is 3.61 min.
With `CN1CCN(C(=O)N[C@@H](Cc2ccccc2)C(=O)N[C@H](/C=C/S(=O)(=O)c2ccccc2)CCc2ccccc2)CC1` [K-777], the K in [24] turned out to be 0.00028 s⁻¹. For the same molecule, in series [6], the Retention_time was 4.64 min. For the same molecule, the EC50 is greater than 20 µM in series [16]; 0.7 µM in [18]; 1.7 µM in series [20]; 60 µM in series [25]; 0.09 µM in series [23]. Further, the CC50 is greater than 10 µM in series [19] and 60 to 100 µM in [21].
`O=C(N[C@@H](Cc1ccccc1)C(=O)N[C@H](/C=C/c1ncco1)Cc1ccccc1)OCc1ccccc1`: the EC50 in series [16] was greater than 20 µM; in series [20], 27 µM. Besides, the 50% cytotoxic concentration (CC50) in series [21] is greater than 100 µM.
On to `CN1CCN(C(=O)N[C@@H](Cc2ccccc2)C(=O)N[C@H](/C=C/c2ncccn2)CCc2ccccc2)CC1`, for which the Ki in series [1] was greater than 10 µM. The EC50 in series [16] is 20 µM; in series [20], 15 µM; in series [23] it was greater than 20 µM.
`C[n+]1ccccc1/C=C/[C@H](Cc1ccccc1)NC(=O)[C@H](Cc1ccccc1)NC(=O)OCc1ccccc1.[I-]`: the K in series [4] amounted to 37 M⁻¹ s⁻¹. In addition, the Ke in [5] came out at 7400 M⁻¹. The solubility result in series [2] is given as “>= 50 uM”. Also, the “Ratio Ki” value in [13] was “>= 3”; in [14], 40; in series [15] it was “>= 3”. Also, the EC50 is 8.7 µM in series [16], 9.9 µM in series [18], 13 µM in series [20] and 6.6 µM in series [23]. In series [17], the “Ratio IC50” value is listed as 10. The CC50 was greater than 10 µM in series [19] and greater than 100 µM in series [21]. Besides, the selectivity ratio in [22] is greater than 10.
Regarding `O=C(N[C@@H](Cc1ccccc1)C(=O)N[C@H](/C=C/c1ccccc1)Cc1ccccc1)OCc1ccccc1`, the solubility result in [2] is on record as “<= 2 uM”.
On to `O=C(N[C@@H](Cc1ccccc1)C(=O)N[C@H](/C=C/c1ccccn1)CCc1ccccc1)OCc1ccccc1`, for which the EC50 in series [16] was greater than 20 µM; in series [18], 5.9 µM; in series [20], greater than 10 µM; in series [23], 4 µM. Further, the figures for the CC50 in series [19] and in series [21] were greater than 10 µM and greater than 100 µM, respectively.
